Experiments:
STAT4 [1] = target: T1, STAT4 (Homo sapiens, UniProt Q14765); test: Competitive fluorescence polarization (FP) assay, STAT4; assay type: binding
T1 sequence (Q14765 1-748): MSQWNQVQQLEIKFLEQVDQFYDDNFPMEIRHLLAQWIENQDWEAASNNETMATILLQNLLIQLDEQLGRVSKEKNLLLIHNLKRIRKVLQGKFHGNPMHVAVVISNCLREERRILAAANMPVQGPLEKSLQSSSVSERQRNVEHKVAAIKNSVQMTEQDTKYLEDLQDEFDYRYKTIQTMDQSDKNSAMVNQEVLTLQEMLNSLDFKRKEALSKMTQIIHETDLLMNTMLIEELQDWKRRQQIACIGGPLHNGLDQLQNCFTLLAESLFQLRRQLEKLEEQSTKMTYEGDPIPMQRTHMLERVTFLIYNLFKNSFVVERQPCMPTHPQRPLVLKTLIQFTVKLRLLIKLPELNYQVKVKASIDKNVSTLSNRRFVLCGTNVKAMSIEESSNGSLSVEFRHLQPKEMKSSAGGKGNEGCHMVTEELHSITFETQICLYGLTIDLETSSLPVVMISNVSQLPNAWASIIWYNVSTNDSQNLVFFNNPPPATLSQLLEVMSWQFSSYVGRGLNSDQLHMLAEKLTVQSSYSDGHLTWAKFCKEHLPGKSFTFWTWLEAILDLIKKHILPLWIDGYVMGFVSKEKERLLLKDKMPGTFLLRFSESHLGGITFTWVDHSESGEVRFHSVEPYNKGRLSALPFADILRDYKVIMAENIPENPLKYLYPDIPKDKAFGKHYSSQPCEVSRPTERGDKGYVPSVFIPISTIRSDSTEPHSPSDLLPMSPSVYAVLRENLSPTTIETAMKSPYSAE
Experimental: Screening of chemical libraries […]
PPADS was purchased […]
from Sigma-Aldrich, and iso-PPADS from Bio-Techne.
(§1) Fluorescence polarization assays
(§2) Competitive fluorescence polarization (FP) assays for STAT1,[2] STAT3,[3] STAT4,[4] STAT5a,[5] STAT5b[6] and STAT6[1] were performed as previously described. Briefly, peptide binding to proteins was analyzed using the following carboxyfluorescein (CF) -labelled pepti des at a concentration of 10 nM: STAT1: 5-CF-GpYDKPHVL-OH, STAT3: 5-CF-GpYLPQTV -NH2, STAT4: 5-CF-GpYLPQNID-OH, STAT5a and STAT5b: 5-CF-GpYLVLDKW-OH, STAT6: 5- […]
CFGp[…]-OH. Proteins were used at a final concentration representing the approximate Kd value for binding of the corresponding peptide to the protein, namely 65 nM for STAT1, 65 nM for STAT3, 35 nM for STAT4, 125 nM for STAT5a, 65 nM for STAT5b and 75 nM for STAT6. Assays were carried out in buffer containing 10 mM Tris/HCl, 50 mM NaCl, 1 mM EDTA, 0.1% NP-40 substitute and 2% DMSO, with 1 mM reducing agent where […]
applicable, at pH 8.0. […]
before adding peptide and incubating for a further 1 h. FP was measured using an Infinite F500 plate reader (Tecan) and measurements were converted into percent inhibition according to […]

STAT4 [2] = target: T1, STAT4; test: HTRF assay, STAT4; assay type: binding; details: STAT4 30 nM, without reducing agent, 1 h
Source text: The azo dyes PPADS and iso‐PPADS have a deep red color in aqueous solution. […] In order to exclude this possibility, we established homogeneous time‐resolved fluorescence resonance energy transfer (HTRF) assays to confirm the degree of binding between STAT4, STAT5a, and STAT5b and the respective 5‐carboxyfluorescein‐labeled binding peptides used in the FP assay. In addition, an HTRF assay was established for STAT3, one of the STAT proteins targeted to a lesser extent in FP assays, as a specificity control (Figure 1B,C). The STAT protein constructs each contain a 6x‐His‐tag.^[ [15], [16], [17], [22] ^] A Tb^3+‐cryptate fused to an anti‐6x‐His antibody was chosen as the long‐lived fluorescent donor, while the carboxyfluorescein linked to the respective STAT‐binding peptides served as the acceptor (Figure 2A). Emission was measured with a time delay of 60 μs after excitation, allowing any initial compound fluorescence to decay beforehand. […]
Screening of chemical libraries comprising approximately 5000 known bioactive compounds in fluorescence polarization-based assays against phosphorylation-dependent protein-protein interaction domains, including STAT proteins, has been described.[1] […]
as §1
as §2, with “STAT3,[3] STAT4,[4] STAT5a,[5] STAT5b[6] and STAT6[1] were performed as previously described.” left out
CFGp[…]-OH. […] FP was measured using an Infinite F500 plate reader (Tecan) and measurements were converted into percent inhibition according to the binding curve equation. Curves were plotted and best fits calculated using OriginPro […]
Homogenous time-resolved fluorescence (HTRF) assays for STAT3, STAT4, STAT5a and STAT5b were carried out using Cisbio Monoclonal Antibody Anti-6His-Tb Gold as the fluorescence donor (Perkin Elmer) and the corresponding CF-labelled binding peptide as the acceptor. […] The average reading from 3 wells was obtained. […]

[3] = no reducing agent, 1 h, read-out: IC50 STAT4 (FP assay)

**Q.** Which IC50 (STAT4 [1]; [3]) does the source give for `Cc1nc(/N=N/c2cc(S(=O)(=O)O)ccc2S(=O)(=O)O)c(COP(=O)(O)O)c(C=O)c1O` [iso‐PPADS] here?
**A.** 1900 ± 200 nM

**Q.** And the IC50 (STAT4 [2])?
**A.** 8600 ± 1300 nM

**Q.** `Cc1nc(/N=N/c2ccc(S(=O)(=O)O)cc2S(=O)(=O)O)c(COP(=O)(O)O)c(C=O)c1O` [PPADS, pyridoxalphosphate‐6‐azophenyl‐2',4'‐disulfonic acid] was tested. Which IC50 (STAT4 [1]; IC50 STAT4 (FP assay), 1 mM DTT, 1 hr) did it give?
**A.** 1700 ± 300 nM

**Q.** And the IC50 (STAT4 [1]; IC50 STAT4 (FP assay), 1 mM DTT, 2 hr)?
**A.** 2500 ± 400 nM

**Q.** What about the IC50 (STAT4 [1]; IC50 STAT4 (FP assay), 1 mM DTT, 3 hr) of the same molecule?
**A.** 3700 ± 600 nM

**Q.** And the IC50 (STAT4 [1]; IC50 STAT4 (FP assay), 1 mM DTT, 4 hr)?
**A.** 4900 ± 900 nM

**Q.** And the IC50 (STAT4 [1]; IC50 STAT4 (FP assay), 1 mM TCEP, 1 hr)?
**A.** 2400 ± 300 nM

**Q.** And the IC50 (STAT4 [1]; IC50 STAT4 (FP assay), 1 mM TCEP, 2 hr)?
**A.** 2400 ± 200 nM

**Q.** What about the IC50 (STAT4 [1]; IC50 STAT4 (FP assay), 1 mM TCEP, 3 hr) of the same molecule?
**A.** 2500 ± 400 nM

**Q.** And the IC50 (STAT4 [1]; IC50 STAT4 (FP assay), 1 mM TCEP, 4 hr)?
**A.** 2800 ± 500 nM

**Q.** What about the IC50 (STAT4 [1]; [3]) of the same molecule?
**A.** 2200 ± 200 nM

**Q.** What about the IC50 (STAT4 [1]; no reducing agent, 2 hr, read-out: IC50 STAT4 (FP assay), no reducing agent) of the same molecule?
**A.** 2400 ± 300 nM

**Q.** And the IC50 (STAT4 [1]; no reducing agent, 3 hr, read-out: IC50 STAT4 (FP assay), no reducing agent)?
**A.** 2600 ± 300 nM

**Q.** What about the IC50 (STAT4 [1]; no reducing agent, 4 hr, read-out: IC50 STAT4 (FP assay), no reducing agent) of the same molecule?
**A.** 2400 ± 100 nM

**Q.** What about the IC50 (STAT4 [2]) of the same molecule?
**A.** 2920 ± 360 nM

Reference: article PMC12442245, “Activity Analysis of the P2X Receptor Antagonist PPADS against Signal Transducer and Activator of Transcription Proteins” (Chembiochem, 2025)
